Assay results published in US8211909B2, “Treatment of antibiotic-resistant bacteria infection” (TaiGen Biotechnology Co., Ltd., priority 2008, dated 2012).
≈ marks a conversion by molar mass, not a printed value. Like-named read-outs stand apart in the source and are kept apart here. Each block holds one compound with its values, some of them ahead of it.

Legend:
[1] = system: Staphylococcus aureus strains (MRSA, hVISA, VISA, VRSA, quinolone-resistant MRSA); experiment: MIC by agar dilution against Staphylococcal strains (MRSA, hVISA, VISA, VRSA, quinolone-resistant MRSA); assay type: cell-based; conditions: Staphylococcus aureus
Method: Compound 1 was tested for its inhibitory effect against 26 Methicillin-resistant Staphylococcus aureus (MRSA) strains, 2 hetero-Vancomycin intermediate Staphylococcus aureus (hVISA) strains, 24 Vancomycin-intermediate Staphylococcus aureus (VISA) strains, 5 Vancomycin-resistant Staphylococcus aureus (VRSA) strains, and 31 quinolone-resistant Vancomycin-susceptibale MRSA strains with defined mutations in QRDR. These mutations were determined by sequencing analysis of the QRDR (gyrA, gyrB, grlA, and grlB). Efflux testing was performed by the reserpine method (Brenwald, et al., Antimicrob. Agents Chemother. 1998, 42: 2032-2035).

[2] = system: Staphylococcus epidermidis (MSSE, MRSE); experiment: CANWARD 2007 gram-positive cocci, CLSI broth microdilution; assay type: cell-based; set-up: MIC50 / MIC90: unit not given beside the values
Method: (§1) From January-December 2007, 12 hospitals across Canada submitted isolates from patients attending hospital clinics, emergency rooms, medical and surgical wards, and intensive care units. 7881 isolates (CANWARD 2007) were collected including 3473 gram-positive cocci. Susceptibility testing for Compound 1 and Levofloxacin was performed using the Clinical and Laboratory Standards Institute broth microdilution.

[3] = system: S. aureus (MSSA, CA-MRSA, HA-MRSA, VISA, VRSA); experiment: CANWARD 2007 / NARSA gram-positive cocci, CLSI broth microdilution; assay type: cell-based, Staphylococcus aureus; set-up: MIC50 / MIC90: unit not given here
Method: as §1

H. pylori isolates = experiment: MIC by agar dilution against 200 H. pylori isolates (Taiwan); assay type: cell-based, Helicobacter pylori
Method: MICs were determined using the agar dilution methods recommended by the Clinical and Laboratory Standards Institute (CLSI-M100-S18).

E. faecalis = experiment: CANWARD 2007 gram-positive cocci, CLSI broth microdilution; assay type: cell-based; set-up: unit not given beside the values; conditions: E. faecalis (81)
Method: as §1

S. pneumoniae = experiment: as above; assay type: cell-based, Streptococcus pneumoniae; set-up: MIC50 / MIC90: unit not given here
Method: as §1

[4] = system: methicillin-resistant Streptococcus pneumoniae; experiment: MIC by broth microdilution, Taiwan clinical isolates (Compound 1′); assay type: cell-based; conditions: for MIC50 / MIC90: Streptococcus pneumoniae
Method: (§2) The Staphylococcus aureus and Streptococcus pneumoniae isolates were obtained by 10 medical centers in all regions of Taiwan. MICs were determined using the broth microdilution method.

[5] = system: Methicillin-resistant Staphylococcus aureus (MRSA) isolates; experiment: MIC by broth microdilution (CLSI) against CAN-ICU MRSA isolates; assay type: cell-based; conditions: Staphylococcus aureus; for MIC50: read-out: MIC50; for MIC90: read-out: MIC90
Excerpt: MRSA isolates (n=193) were obtained as part of the Canadian National Intensive Care Unit (CAN-ICU) Study. 19 medical centers from all regions of Canada with active ICUs participated in the CAN-ICU study included. They were requested to only obtain “clinically significant” specimens from patients with a presumed infectious disease. Surveillance swabs, eye, ear, nose and throat swabs were excluded. Anaerobic organisms and fungal organisms were also excluded.
From September 2005-June 2006 (inclusive), each center collected a maximum of 300 consecutive pathogens isolated from blood, urine, tissue/wound, and respiratory specimens (one pathogen per cultured site per patient) of ICU patients. These isolates were shipped to the reference laboratory (Health Sciences Centre, Winnipeg, Canada) on Amies charcoal swabs, subcultured in appropriate media, and stocked in skim milk at −80° C.
All isolates underwent mecA PCR, as well as molecular characterization (including PVL analysis and fingerprinting), as previously described, to assess whether they were community-associated or healthcare-associated (Christianson et al., J Clin Microbiol. 2007, 45 (6): 1904-11; Mulvey et al., J Clin. Microbiol. 2001, 39(10): 3481-5; Mulvey et al., Emerg Infect Dis. 2005,11(6): 844-50; Oliveira et al., Antimicrob Agents Chemother. 2002, 46(7): 2155-61). The isolates were also subtyped using pulsed-field gel electrophoresis (PFGE) following the Canadian standardized protocol as previously described (Mulvey et al., J Clin Microbiol. 2001, 39(10): 3481-5). Their PFGE fingerprints thus obtained were analyzed with BioNumerics v3.5 (Applied Maths St. Marten-Latem, Belgium) using a position tolerance of 1.0 and an optimization of 1.0. Strain relatedness was determined as previously described (Tenover et al., 1995). The fingerprints of the isolates were compared to the national MRSA fingerprint database and were grouped into one of 10 Canadian epidemic MRSA (CMRSA-1, CMRSA-2, etc) as previously described (Mulvey et al., Emerg Infect Dis. 2005,11(6):844-50).
Compound 1 and other antibiotics were tested for their inhibitory activity against the MRSA isolates using the broth microdilution guidelines as stipulated by the Clinical and Laboratory Standards Institute.

[6] = system: methicillin-resistant Staphylococcus aureus; experiment: MIC by broth microdilution, Taiwan clinical isolates (Compound 1′); assay type: cell-based; conditions: for MIC50 / MIC90: Staphylococcus aureus, MRSA
Method: as §2

[7] = hVISA(2) + VISA (24) + VRSA (5)
[8] = Helicobacter pylori, 200 isolates of H. pylori
[9] = MRSA / USA100, USA 100/800 (HA-MRSA)
[10] = MRSA / USA200, USA 200 (HA-MRSA)
[11] = MRSA / USA300, USA 300 (CA-MRSA)
[12] = MRSA / USA400, USA 400 (CA-MRSA)
[13] = MRSA / USA600, USA 600 (HA-MRSA)
[14] = MRSP-Levo (R): Levofloxacin resistant strain
[15] = MRSP-Levo (S): Levofloxacin sensitive strain
[16] = MRSA-CIP (R): MRSA-ciprofloxacin resistant strain
[17] = MRSA-CIP (S): MRSA-ciprofloxacin sensitive strain

Compound: C[C@H]1COc2c(N3CCN(C)CC3)c(F)cc3c(=O)c(C(=O)O)cn1c23 [Levofloxacin]
MIC50 ([1]; MRSA (26)): 0.25 µg/mL (≈ 0.692 µM)
MIC90 ([1]; MRSA (26)): 0.5 µg/mL (≈ 1.38 µM)
MIC50 ([1]; Quinolone-resistant MRSA (31)): 16 µg/mL (≈ 44.3 µM)
MIC90 ([1]; Quinolone-resistant MRSA (31)): 32 µg/mL (≈ 88.6 µM)
MIC50 [1, 7]: 16 µg/mL
MIC90 [1, 7]: 32 µg/mL
MIC ([1]; read-out: MIC Range, MRSA (26)): 0.25 to 1 µg/mL (≈ 0.692 to 2.77 µM)
MIC50 ([2]; MRSE (9)): >32/>32
MIC90 ([2]; MRSE (9)): >32/>32
MIC50 ([2]; MSSE (32)): 4
MIC90 ([2]; MSSE (32)): > 32
MIC50 ([3]; CA-MRSA (23)): 4
MIC90 ([3]; CA-MRSA (23)): 8
MIC50 ([3]; HA-MRSA (91)): >32/>32
MIC90 ([3]; HA-MRSA (91)): >32/>32
MIC50 ([3]; MSSA (372)): 0.25
MIC90 ([3]; MSSA (372)): 4
MIC50 ([3]; VISA (12), NARSA isolates): 32/>32
MIC90 ([3]; VISA (12), NARSA isolates): 32/>32
median MIC (single value under head MIC50/MIC90) ([3]; VRSA (7), NARSA isolates): 32
share of isolates resistant (H. pylori isolates; 200 H. pylori isolates, resistance: amoxicillin MICs≧0.5, clarithromycin ≧1, metronidazole ≧8, ciprofloxacin ≧1, levofloxacin ≧1 μg/mL): 2%
MIC50 (H. pylori isolates; [8]): 250 µg/mL (≈ 692 µM)
MIC90 (H. pylori isolates; [8]): 500 µg/mL (≈ 1380 µM)
MIC50 (E. faecalis): 2
MIC90 (E. faecalis): > 32
MIC50 (S. pneumoniae; SPN CipR (29)): 2
MIC90 (S. pneumoniae; SPN CipR (29)): 16
MIC50 (S. pneumoniae; SPN PenI (103)): 0.5
MIC90 (S. pneumoniae; SPN PenI (103)): 1
MIC50 (S. pneumoniae; SPN PenR (34)): 0.5
MIC90 (S. pneumoniae; SPN PenR (34)): 2
MIC50 (S. pneumoniae; SPN PenS (519)): 0.5
MIC90 (S. pneumoniae; SPN PenS (519)): 1
MIC50 (S. pneumoniae; SPN-All (656)): 0.5
MIC90 (S. pneumoniae; SPN-All (656)): 1
MIC50/MIC90 (single value printed) ([4]; MRSP-Levo (R)): >128 µg/mL
MIC50/MIC90 (single value printed) ([4]; MRSP-Levo (S)): 16 µg/mL (≈ 44.3 µM)
MIC50 [5, 9]: > 32 µg/mL
MIC90 [5, 9]: > 32 µg/mL
MIC50 [5, 10]: 32 µg/mL (≈ 88.6 µM)
MIC90 [5, 10]: > 32 µg/mL
MIC50 [5, 11]: 8 µg/mL (≈ 22.1 µM)
MIC90 [5, 11]: 8 µg/mL (≈ 22.1 µM)
MIC50 [5, 12]: 0.25 µg/mL (≈ 0.692 µM)
MIC90 [5, 12]: 0.25 µg/mL (≈ 0.692 µM)
MIC50 [5, 13]: 32 µg/mL (≈ 88.6 µM)
MIC90 [5, 13]: > 32 µg/mL
MIC50 ([5]; MRSA (n = 193)): > 32 µg/mL
MIC90 ([5]; MRSA (n = 193)): > 32 µg/mL
MIC ([5]; MRSA (n = 193), read-out: MIC Range Max): > 32 µg/mL
MIC ([5]; MRSA (n = 193), read-out: MIC Range Min): 0.25 µg/mL (≈ 0.692 µM)

MIC50 [4, 14]: 0.25 µg/mL (≈ 0.673 µM)
MIC90 [4, 14]: 1 µg/mL (≈ 2.69 µM)
MIC50 [4, 15]: 0.03 µg/mL (≈ 0.0808 µM)
MIC90 [4, 15]: 0.06 µg/mL (≈ 0.162 µM)
MIC50 [6, 16]: 1 µg/mL (≈ 2.69 µM)
MIC90 [6, 16]: 1 µg/mL (≈ 2.69 µM)
MIC50 [6, 17]: 0.03 µg/mL (≈ 0.0808 µM)
MIC90 [6, 17]: 0.06 µg/mL (≈ 0.162 µM)
Compound: COc1c(N2C[C@H](C)C[C@H](N)C2)ccc2c(=O)c(C(=O)O)cn(C3CC3)c12 [Compound 1′, (3S,5R)-7-[3-amino-5-methyl-piperidinyl]-1-cyclopropyl-1,4-dihydro-8-methoxy-4-oxo-3-quinolinecarboxylic acid]
inhibition (in words) ([4]; methicillin-resistant Streptococcus pneumoniae): effective
inhibition (in words) ([6]; methicillin-resistant Staphylococcus aureus): effective
